Results on 19 compounds are retold here after PMC9583330, “Quinazoline-4(3H)-one-7-carboxamide Derivatives as Human Soluble Epoxide Hydrolase Inhibitors with Developable 5-Lipoxygenase Activating Protein Inhibition” (ACS Omega, 2022).

As usually defined, the IC50 is the point on the concentration scale where inhibition reaches its midpoint. As usually defined, the melting point is the temperature, or range, at which the solid turns liquid. For orientation: remaining activity means the signal under treatment as a percentage of the control signal.

Structures are written as SMILES. Where “and” joins values, the source holds several entries; their conditions need not be identical. Equal entries are not always repeated.

The subject of data set [1] is FLAP-mediated cellular LT formation in human neutrophils. The experiment in a line: FLAP-dependent 5-LO product formation in intact neutrophils. The format is cell-based. To be noted: Neutrophil; for IC50: Homo sapiens, intact neutrophils challenged with 2.5 μM ionophore plus 20 μM arachidonic acid; for activity at 10 µM: 10 μM inhibitor, read-out: 5-LO product formation in neutrophils, remaining activity (% of control) at 10 μM; for activity at 10 µM / activity at 1 µM: human neutrophils, 2.5 μM Ca2+-ionophore A23187, means ± SEM, n = 4–5; for activity at 1 µM: 1 μM inhibitor, read-out: 5-LO product formation in neutrophils, remaining activity (% of control) at 1 μM. Here is the method:
Neutrophils were isolated from leukocyte concentrates obtained from freshly withdrawn peripheral blood of healthy adult male and female donors which were provided by the Institute of Transfusion Medicine, University Hospital Jena, Germany. The experimental protocol was approved by the ethical committee of the University Hospital Jena, and all methods were performed in accordance with the relevant guidelines and regulations. The leukocyte concentrates were mixed with dextran (from Leuconostoc spp. MW ∼40,000, Sigma Aldrich) for sedimentation of erythrocytes, and the supernatant was centrifuged on lymphocyte separation medium (Histopaque-1077, Sigma Aldrich). Contaminating erythrocytes in the pelleted neutrophils were removed by hypotonic lysis using distilled water. The neutrophils were washed twice in ice-cold PBS pH 7.4 and finally resuspended in PBS pH 7.4 plus 1 mg/mL glucose (PGC buffer).
Human neutrophils [5 × 10^6; in PGC buffer; incubation volume, 1 mL] were preincubated with 0.1% DMSO (vehicle) or with the compounds at 37 °C for 15 min. […] Samples were then subjected to solid-phase extraction on C18-columns (100 mg, UCT, Bristol, PA), and 5-LO products (LTB4 and its trans-isomers, and 5-H(p)ETE) were extracted and analyzed in the presence of internal standard PGB1 by RP-HPLC and UV detection as reported elsewhere.[45]

The target of data set [2] is T1, Human recombinant sEH (Homo sapiens, UniProt P34913).
T1 construct: made in house; host or cells: Sf9 insect cells, recombinant baculovirus from Dr. B. Hammock
T1 sequence (P34913 1-555): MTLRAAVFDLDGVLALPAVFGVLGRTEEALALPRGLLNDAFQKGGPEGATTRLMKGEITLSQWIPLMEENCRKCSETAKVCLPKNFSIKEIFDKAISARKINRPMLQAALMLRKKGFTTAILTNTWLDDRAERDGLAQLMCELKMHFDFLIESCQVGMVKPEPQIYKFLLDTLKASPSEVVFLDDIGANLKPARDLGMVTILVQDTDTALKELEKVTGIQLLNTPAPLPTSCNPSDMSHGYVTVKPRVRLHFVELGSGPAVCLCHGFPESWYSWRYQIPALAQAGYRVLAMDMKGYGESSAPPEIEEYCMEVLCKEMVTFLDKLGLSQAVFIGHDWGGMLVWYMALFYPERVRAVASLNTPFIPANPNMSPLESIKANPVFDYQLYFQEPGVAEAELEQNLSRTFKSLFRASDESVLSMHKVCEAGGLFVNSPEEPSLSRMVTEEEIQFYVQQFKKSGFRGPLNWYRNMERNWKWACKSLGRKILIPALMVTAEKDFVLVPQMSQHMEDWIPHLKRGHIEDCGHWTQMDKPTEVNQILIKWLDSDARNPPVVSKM
Nature of the data set: sEH cell-free fluorescence-based assay (PHOME substrate). The format is biochemical. To be noted: means ± SEM, n = 3; for IC50: cell-free assay, human sEH; for remaining activity at 10 µM: residual activity at 10 μM, control = vehicle 100%. Here is the method: Human recombinant sEH was expressed and purified as reported before.[46] In brief, Sf9 cells were infected with a recombinant baculovirus (kindly provided by Dr. B. Hammock, University of California, Davis, CA). Seventy-two hours post-transfection, cells were pelleted and sonicated (3 × 10 s at 4 °C) in lysis buffer containing NaHPO4 (50 mM, pH 8), NaCl (300 mM), glycerol (10%), EDTA (1 mM), phenylmethanesulfonyl fluoride (1 mM), leupeptin (10 μg/mL), and a soybean trypsin inhibitor (60 μg/mL). Supernatants after centrifugation at 100,000 × g (60 min, 4 °C) were subjected to benzylthio-sepharose-affinity chromatography in order to purify sEH by elution with 4-fluorochalcone oxide in PBS containing 1 mM DTT and 1 mM EDTA. Dialyzed and concentrated (Millipore Amicon-Ultra-15 centrifugal filter) enzyme solution was assayed for total protein with a Bio-Rad protein detection kit (Bio-Rad Laboratories, Munich, Germany), and the epoxide hydrolase activity was determined by using a fluorescence-based assay as described before.[47] Shortly, sEH was diluted in Tris buffer (25 mM, pH 7) supplemented with BSA (0.1 mg/mL) to an appropriate enzyme concentration and preincubated with test compounds or vehicle (0.1% DMSO) for 10 min at room temperature (RT). The reaction was started by the addition of 50 μM 3-phenyl-cyano(6-methoxy-2-naphthalenyl)methyl ester-2-oxiraneacetic acid (PHOME), a nonfluorescent compound that is enzymatically converted into fluorescent 6-methoxy-naphtaldehyde at RT. After 60 min, reactions were stopped by ZnSO4 (200 mM) and fluorescence was detected (λem 465 nm, λex 330 nm) using a NOVOstar microplate reader (BMG Labtech GmbH, Ortenberg, Germany), and potential fluorescence of test compounds was subtracted from the read-out, if required.

Compound `O=C(O)c1ccc2c(=O)n(-c3ccccc3)c(SCc3ccccc3Cl)nc2c1` [Compound 10, 2-((2-Chlorobenzyl)thio)-4-oxo-3-phenyl-3,4-dihydroquinazoline-7-carboxylic Acid] showed a melting point of 277.8 to 279.8 °C. In addition, in data set [1], the IC50 was determined as 2.1 ± 0.4 µM and the activity at 10 µM is 1.3 ± 0.3%.

On to `CC(C)CNC(=O)c1ccc2c(=O)n(-c3ccccc3)c(SCc3ccccc3Cl)nc2c1` [Compound 12, N-Isobutyl-4-oxo-3-phenyl-2-((2-chlorobenzyl)thio)-3,4-dihydroquinazoline-7-carboxamide], for which the melting point is 230.8 to 232.7 °C. In data set [2], the IC50 turned out to be 7.4 ± 2.8 µM.

With `CC(C)NC(=O)c1ccc2c(=O)n(-c3ccccc3)c(SCc3ccc(C(F)(F)F)cc3)nc2c1` [Compound 13, N-Isopropyl-4-oxo-3-phenyl-2-((4-(trifluoromethyl)benzyl)thio)-3,4-dihydroquinazoline-7-carboxamide], the melting point was 212.5 to 213.3 °C. In addition, in data set [2], the IC50 is around 10 µM and the remaining activity at 10 µM worked out at 58.3%.

In the case of `CC(C)CNC(=O)c1ccc2c(=O)n(-c3ccccc3)c(SCc3ccc(C(F)(F)F)cc3)nc2c1` [Compound 14, N-Isobutyl-4-oxo-3-phenyl-2-((4-(trifluoromethyl)benzyl)thio)-3,4-dihydroquinazoline-7-carboxamide], the melting point lay within 214.7 to 216.6 °C. Further, the IC50 in data set [2] was found to be 4.5 ± 0.7 µM.

In turn, `COC(=O)c1cccc(CSc2nc3cc(C(=O)NCC(C)(C)C)ccc3c(=O)[nH]2)c1` [Compound 20, Methyl 3-(((7-(neopentylcarbamoyl)-4-oxo-3,4-dihydroquinazolin-2-yl)thio)methyl)benzoate] showed a melting point of 269.6 to 271.4 °C. Besides, in data set [2], the IC50 is above 10 µM and the remaining activity at 10 µM was determined as 94.3%.

On to `CC(C)(C)CNC(=O)c1ccc2c(=O)[nH]c(SCc3cccc(C(=O)O)c3)nc2c1` [Compound 21, 3-(((7-(Neopentylcarbamoyl)-4-oxo-3,4-dihydroquinazolin-2-yl)thio)methyl)benzoic Acid], for which the melting point fell in the range of 250.6 to 252.6 °C. Also, in data set [2], the IC50 was around 10 µM and the remaining activity at 10 µM turned out to be 51.9%.

As for `O=C(O)c1ccc2c(=O)[nH]c(SCc3ccccc3Cl)nc2c1` [Compound 22], the melting point is 280 °C (dec.). In data set [1], the IC50 is around 10 µM, the activity at 1 µM came to 102 ± 5.4% and the activity at 10 µM came to 50.3 ± 15.5%.

With `CC(C)(C)CNC(=O)c1ccc2c(=O)[nH]c(SCc3ccccc3Cl)nc2c1` [Compound 34, 2-((2-Chlorobenzyl)thio)-N-neopentyl-4-oxo-3,4-dihydroquinazoline-7-carboxamide], the melting point was 238.4 to 239.8 °C. In addition, the IC50 in data set [2] was 0.66 µM and 0.7 µM. In addition, in data set [1], the IC50 was 2.91 µM, the activity at 1 µM turned out to be 84.5 ± 4.5% and the activity at 10 µM was determined as 4.5 ± 1.2%.

Take `CC(C)(C)CNC(=O)c1ccc2c(=O)[nH]c(SCc3cccc(Cl)c3)nc2c1` [Compound 35, 2-((3-Chlorobenzyl)thio)-N-neopentyl-4-oxo-3,4-dihydroquinazoline-7-carboxamide]: the melting point lay within 217.1 to 218.4 °C. Moreover, the IC50 in data set [2] is 0.3 ± 0.05 µM. In addition, in data set [1], the IC50 was above 10 µM, the activity at 1 µM stood at 93.5 ± 11.4% and the activity at 10 µM was found to be 62.1 ± 12.2%.

`CC(C)(C)CNC(=O)c1ccc2c(=O)[nH]c(SCc3ccccc3F)nc2c1` [Compound 39, 2-((2-Fluorobenzyl)thio)-N-neopentyl-4-oxo-3,4-dihydroquinazoline-7-carboxamide] registered a melting point of 210.3 to 212.2 °C. In addition, the IC50 in data set [2] is 1.3 ± 0.1 µM.

In the case of `CC(C)(C)CNC(=O)c1ccc2c(=O)[nH]c(SCc3ccccc3C#N)nc2c1` [Compound 40, 2-((2-Cyanobenzyl)thio)-N-neopentyl-4-oxo-3,4-dihydroquinazoline-7-carboxamide], the melting point is 190.3 to 192.2 °C. Besides, the IC50 in data set [2] turned out to be 2.4 ± 0.3 µM.

`Cc1ccccc1CSc1nc2cc(C(=O)NCC(C)(C)C)ccc2c(=O)[nH]1` [Compound 41, 2-((2-Methylbenzyl)thio)-N-neopentyl-4-oxo-3,4-dihydroquinazoline-7-carboxamide] returned a melting point of 207.4 to 209.4 °C. Further, in data set [2], the IC50 worked out at 1.2 ± 0.1 µM.

The compound `COc1ccccc1CSc1nc2cc(C(=O)NCC(C)(C)C)ccc2c(=O)[nH]1` [Compound 42, 2-((2-Methoxybenzyl)thio)-N-neopentyl-4-oxo-3,4-dihydroquinazoline-7-carboxamide] gave a melting point of 230.2 to 232.1 °C. Also, the IC50 in data set [2] came to 3.9 ± 2 µM.

On to `CC(C)(C)CNC(=O)c1ccc2c(=O)[nH]c(SCc3ccccc3OC(F)(F)F)nc2c1` [Compound 43, 2-((2-(Trifluoromethoxy)benzyl)thio)-N-neopentyl-4-oxo-3,4-dihydroquinazoline-7-carboxamide], for which the melting point lay within 220.9 to 221.9 °C. The IC50 in data set [2] worked out at 0.4 ± 0.1 µM.

On to `Cc1ncccc1CSc1nc2cc(C(=O)NCC(C)(C)C)ccc2c(=O)[nH]1` [Compound 44, 2-(((2-Methylpyridin-3-yl)methyl)thio)-N-neopentyl-4-oxo-3,4-dihydroquinazoline-7-carboxamide], for which the melting point is 202.3 to 203.8 °C. Also, the IC50 in data set [2] was 11 µM and 11.2 µM.

Regarding `CC(C)CNC(=O)c1ccc2c(=O)[nH]c(SCc3ccc(C(F)(F)F)cc3)nc2c1` [Compound 46, 2-((4-(Trifluoromethyl)benzyl)thio)-N-isobutyl-4-oxo-3,4-dihydroquinazoline-7-carboxamide], the melting point lay in the range of 262.8 to 264.6 °C. For the same compound, the IC50 in data set [2] was found to be 1.5 ± 0.2 µM.

`O=C(c1ccc2c(=O)[nH]c(SCc3ccccc3Cl)nc2c1)N1CCNCC1` [Compound 48, 2-((2-Chlorobenzyl)thio)-7-(piperazine-1-carbonyl)quinazolin-4(3H)-one]: the melting point lay within 159.9 to 162 °C. Moreover, in data set [2], the IC50 was above 10 µM and the remaining activity at 10 µM was determined as 105%.

Turning to `O=C(c1ccc2c(=O)[nH]c(SCc3ccccc3Cl)nc2c1)N1CCCCC1` [Compound 49], the melting point lay in the range of 175.6 to 177.2 °C. For the same compound, in data set [2], the IC50 was above 10 µM and the remaining activity at 10 µM is 58.5%.

`O=C(c1ccc2c(=O)[nH]c(SCc3ccccc3Cl)nc2c1)N1CCOCC1` [Compound 50, 2-((2-Chlorobenzyl)thio)-7-(morpholine-4-carbonyl)quinazolin-4(3H)-one] displayed a melting point of 198.6 to 200.4 °C. Further, in data set [2], the IC50 was above 10 µM and the remaining activity at 10 µM was determined as 77.7%.
